Assays:
Human GPR40 [1] = target: T1, Human GPR40 (Homo sapiens (Human), UniProt O14842); test: Inositol Phosphate Turnover (IP1) Assay 1, HEK cells stably expressing human GPR40, 3H-inositol SPA; format: cell-based; settings: HEK cells stably expressing human GPR40, 96-well
Experimental: (§1) Human and mouse GPR40 stable cell-lines were generated in CHO cells stably expressing NFAT BLA (Beta-lactamase). A human GPR40 stable cell-line was generated in HEK cells stably expressing the aequorin expressing reporter. The expression plasmids were transfected using lipofectamine (Life Technologies) following manufacturer's instructions. Stable cell-lines were generated following drug selection.
The assay was performed in 96-well format. HEK cells stably expressing human GPR40 were plated to be 60-80% confluent within 72 h. After 72 h, the plates were aspirated and the cells washed with inositol-free DMEM (ICN). The wash media was replaced with 150 μL of 3H-inositol labeling media (inositol-free media containing 0.4% human albumin or 0.4% mouse albumin, 1× pen/strep antibiotics, glutamine, 25 mM HEPES to which was added 3H-myo-inositol NEN #NET114A 1 mCi/mL, 25 Ci/mmol diluted 1:150 in loading media with a final specific radioactivity of 1 μCi/150 μL). Alternatively, the human and mouse albumin can be added after the overnight labeling step before the addition of LiCl.
The assay was typically run the next day after 18 h labeling. On the day of the assay, 5 μL of 300 mM LiCl was added to all wells and incubated at 37 degrees for 20 min. 0.75 μL of each compound was added and incubated with the cells for 60 min at 37 degrees. The media was then aspirated off and the assay terminated with the addition of 60 μL 10 mM formic acid. The cells were lysed for 60 min at room temperature. 15-30 μL of lysate was mixed with 70 μL/1 mg YSi SPA beads (Amersham) in clear bottom Isoplates. The plates were shaken for 2 h at room temperature. Beads were allowed to settle and the plates were counted in the Wallac Microbeta.

Human GPR40 [2] = target: T1, Human GPR40; test: FLIPR assay, agonist-induced calcium mobilization in GPR40/CHO NFAT BLA cells; format: cell-based
Experimental: as §1
FLIPR (Fluorimetric Imaging Plate Reader, Molecular Devices) assays were performed to measure agonist-induced calcium mobilization of the stable clones. For the FLIPR assay, one day before assay, GPR40/CHO NFAT BLA cells were seeded into black-wall-clear-bottom 384-well plates (Costar) at 1.4×10e4 cells/20 μL medium/well. The cells were incubated with 20 μl/well of the assay buffer (HBSS, 0.1% BSA, 20 mM HEPES, 2.5 mM probenecid, pH 7.4) containing 8 μM fluo-4, AM, 0.08% pluronic acid at room temperature for 100 minutes. Fluorescence output was measured using FLIPR. Compounds were dissolved in DMSO and diluted to desired concentrations with assay buffer. 13.3 μL/well of compound solution was added.

T1 sequence (O14842 whole entry): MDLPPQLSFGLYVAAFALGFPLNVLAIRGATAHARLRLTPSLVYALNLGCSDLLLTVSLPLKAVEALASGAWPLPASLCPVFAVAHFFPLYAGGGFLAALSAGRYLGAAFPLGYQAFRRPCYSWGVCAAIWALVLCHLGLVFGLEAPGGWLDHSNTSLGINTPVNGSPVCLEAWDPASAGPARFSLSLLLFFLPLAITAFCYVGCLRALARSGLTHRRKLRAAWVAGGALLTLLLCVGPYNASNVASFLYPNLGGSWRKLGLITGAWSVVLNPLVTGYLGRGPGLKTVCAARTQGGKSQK

| EC50 (Human GPR40 [1]) [nM] | EC50 (Human GPR40 [2]) [nM] | Compound |
| --- | --- | --- |
| 4660 | 111 | COc1ccc(F)cc1CN1CCC(Oc2cccc([C@@H](CC(=O)O)C3CC3)c2)C1 (stereo partly drawn) [Example 12, (3S)-3-Cyclopropyl-3-(3-((1-(5-fluoro-2-methoxybenzyl)pyrrolidin-3-yl)oxy)phenyl)propanoic acid] |
| 4150 | 455 | O=C(O)C[C@H](c1cccc(OC2CC3(CCN(Cc4cc(C(F)(F)F)ccc4C(F)(F)F)C3)C2)c1)C1CC1 (single isomer, unassigned) [Example 5A] |
| 251 | 8.3 | O=C(O)C[C@H](c1cccc(OCC2CN(Cc3cc(C(F)(F)F)ccc3C(F)(F)F)C2)c1)C1CC1 [Example 49] |
| 631 | 79 | C[C@H](C(=O)O)[C@H](c1cccc(OCC2CN(c3cc(C(F)(F)F)ccn3)C2)c1)C1CC1 [Example 16, (2S,3R)-3-Cyclopropyl-2-methyl-3-(3-((1-(4-(trifluoromethyl)pyridin-2-yl)azetidin-3-yl)methoxy)phenyl)propanoic acid] |
| 158 | 5.3 | C[C@H](C(=O)O)[C@H](c1cccc(OC[C@H]2CCN(Cc3cc(C(F)(F)F)ccc3C(F)(F)F)C2)c1)C1CC1 [Example 33] |
| 7.6 | 0.3 | CC(c1cc(C(F)(F)F)ccc1C(F)(F)F)N1CC(COc2cccc([C@H](C3CC3)[C@H](C)C(=O)O)c2)C1 (stereo partly shown) [Example 27] |
| 560 | 42 | O=C(O)C[C@H](c1cccc(OCC2CCN(Cc3cc(C(F)(F)F)ccc3C(F)(F)F)C2)c1)C1CC1 (stereo partly shown) [Example 47] |
| 2080 | 79 | O=C(O)C[C@H](c1cccc(OC2CC3(C2)CN(Cc2cc(C(F)(F)F)ccc2C(F)(F)F)C3)c1)C1CC1 [Example 15, (S)-3-(3-((2-(2,5-Bis(trifluoromethyl)benzyl)-2-azaspiro[3.3]heptan-6-yl)oxy)phenyl)-3-cyclopropylpropanoic acid] |
| 348 | 15 | COc1cccc(C2CC2COc2cccc([C@@H](CC(=O)O)C3CC3)c2)c1 (single isomer, unassigned) [Example 63, (3 S)-3-cyclopropyl-3-(3-((2-(3-methoxyphenyl)cyclopropyl)methoxy)phenyl)propanoic acid] |
| 1830 | 173 | O=C(O)C[C@H](c1cccc(OCCC2CCN(Cc3cc(C(F)(F)F)ccc3C(F)(F)F)C2)c1)C1CC1 (stereo partly drawn) [Example 2, (3S)-3-(3-(2-(1-(2,5-Bis(trifluoromethyl)benzyl)pyrrolidin-3-yl)ethoxy)phenyl)-3-cyclopropylpropanoic acid] |
| 4570 | 389 | O=C(O)C[C@H](c1cccc(OCC2CN(Cc3c(F)cccc3C(F)(F)F)C2)c1)C1CC1 [Example 53] |
| 273 | 10 | C[C@H](C(=O)O)[C@H](c1cccc(OCC2CCN(Cc3cc(C(F)(F)F)ccc3C(F)(F)F)C2)c1)C1CC1 (stereo partly shown) [Example 34] |
| 2140 | 113 | O=C(O)C[C@H](c1cccc(OC2CC3(CCN(Cc4cc(C(F)(F)F)ccc4C(F)(F)F)C3)C2)c1)C1CC1 (single isomer, unassigned) [Example 5B] |
| 89 | 2 | C[C@H](C(=O)O)[C@H](c1cccc(O[C@@H]2CCCN(Cc3cc(C(F)(F)F)ccc3C(F)(F)F)C2)c1)C1CC1 [Example 7, (2S,3R)-3-(3-(((R)-1-(2,5-bis(trifluoromethyl)benzyl)piperidin-3-yl)oxy)phenyl)-3-cyclopropyl-2-methylpropanoic acid] |
| 956 | 26 | C[C@H](C(=O)O)[C@H](c1cccc(OCC2CC(NCc3cc(C(F)(F)F)ccc3C(F)(F)F)C2)c1)C1CC1 (stereo partly drawn) [Example 14, (2S,3R)-3-(3-((3-((2,5-Bis(trifluoromethyl)benzyl)amino)cyclobutyl)methoxy)phenyl)-3-cyclopropyl-2-methylpropanoic acid] |
| 967 | 22 | O=C(O)C[C@H](c1cccc(OCC2(F)CN(Cc3cc(C(F)(F)F)ccc3C(F)(F)F)C2)c1)C1CC1 [Example 11, (S)-3-(3-((1-(2,5-Bis(trifluoromethyl)benzyl)-3-fluoroazetidin-3-yl)methoxy)phenyl)-3-cyclopropylpropanoic acid] |

| EC50 (Human GPR40 [1]) [nM] | EC50 (Human GPR40 [2]) [nM] | Compound |
| --- | --- | --- |
| 297 | 13 | C[C@H](C(=O)O)[C@H](c1cccc(OCC2CN(c3ncccc3C(F)(F)F)C2)c1)C1CC1 [Example 21, (2S,3R)-3-Cyclopropyl-2-methyl-3-(3-((1-(3-(trifluoromethyl)pyridin-2-yl)azetidin-3-yl)methoxy)phenyl)propanoic acid] |
| 777 | 439 | Cc1ccc(C(F)(F)F)cc1C(C)N1CC(COc2cccc([C@@H](CC(=O)O)C3CC3)c2)C1 (stereo partly shown) [Example 59] |
| 651 | 24 | COc1cccc(C2CC2COc2cccc([C@@H](CC(=O)O)C3CC3)c2)c1 (stereo partly shown) [Example 61, (3 S)-3-cyclopropyl-3-(3-((2-(3-methoxyphenyl)cyclopropyl)methoxy)phenyl)propanoic acid] |
| 1850 | 129 | O=C(O)C[C@H](c1cccc(OCC2CCN(c3cc(C(F)(F)F)ccc3C(F)(F)F)C2)c1)C1CC1 (stereo partly drawn) [Example 13, (3S)-3-(3-((1-(2,5-Bis(trifluoromethyl)phenyl)pyrrolidin-3-yl)methoxy)phenyl)-3-cyclopropylpropanoic acid] |
| 866 | 15 | O=C(O)C[C@H](c1cccc(OC2CC3CN(Cc4cc(C(F)(F)F)ccc4C(F)(F)F)CC3C2)c1)C1CC1 (stereo partly drawn) [Example 8, (3S)-3-(3-((2-(2,5-bis(trifluoromethyl)benzyl)octahydrocyclopenta[c]pyrrol-5-yl)oxy)phenyl)-3-cyclopropylpropanoic acid] |
| 347 | 23 | CC(c1cc(Cl)ccc1Cl)N1CC(COc2cccc([C@@H](CC(=O)O)C3CC3)c2)C1 (stereo partly shown) [Example 56] |
| 166 | 5.7 | COc1cccc(C2CC2COc2cccc([C@@H](CC(=O)O)C3CC3)c2)c1 (single isomer, unassigned) [Example 62, (3 S)-3-cyclopropyl-3-(3-((2-(3-methoxyphenyl)cyclopropyl)methoxy)phenyl)propanoic acid] |
| 5030 | 55 | O=C(O)C[C@H](c1cccc(OCC2CN(Cc3ccccc3OC(F)(F)F)C2)c1)C1CC1 [Example 50] |
| 55 | 1.5 | C[C@H](C(=O)O)[C@H](c1cccc(OC[C@@H]2CCN(Cc3cc(C(F)(F)F)ccc3C(F)(F)F)C2)c1)C1CC1 [Example 26] |
| 8380 | 126 | O=C(O)C[C@H](c1cccc(OCC2CCCCN2Cc2cc(C(F)(F)F)ccc2C(F)(F)F)c1)C1CC1 (stereo partly drawn) [Example 3, (3S)-3-(3-((1-(2,5-Bis(trifluoromethyl)benzyl)piperidin-2-yl)methoxy)phenyl)-3-cyclopropylpropanoic acid] |
| 79 | 1.4 | C[C@H](C(=O)O)[C@H](c1cccc(OCC2CN(Cc3cc(C(F)(F)F)ccc3C(F)(F)F)C2)c1)C1CC1 [Example 25, (2S,3R)-3-(3-((1-(2,5-Bis(trifluoromethyl)benzyl)azetidin-3-yl)methoxy)phenyl)-3-cyclopropyl-2-methylpropanoic acid] |
| 485 | 77 | C[C@H](C(=O)O)[C@H](c1cccc(OCC2CN(c3cc(C(F)(F)F)ccc3C(F)(F)F)C2)c1)C1CC1 [Example 4, (2S,3R)-3-(3-((1-(2,5-Bis(trifluoromethyl)phenyl)azetidin-3-yl)methoxy)phenyl)-3-cyclopropyl-2-methylpropanoic acid] |
| 711 | 51 | C[C@H](C(=O)O)[C@H](c1cccc(O[C@H]2CCCN(Cc3cc(C(F)(F)F)ccc3C(F)(F)F)C2)c1)C1CC1 [Example 29] |
| 1020 | 142 | O=C(O)C[C@H](c1cccc(OC2CCN(Cc3cc(C(F)(F)F)ccc3C(F)(F)F)CC2)c1)C1CC1 [Example 48] |
| 1040 | 72 | O=C(O)C[C@H](c1cccc(OC2CCN(Cc3cc(C(F)(F)F)ccc3C(F)(F)F)C2)c1)C1CC1 (stereo partly drawn) [Example 23, (3S)-3-(3-((1-(2,5-Bis(trifluoromethyl)benzyl)pyrrolidin-3-yl)oxy)phenyl)-3-cyclopropylpropanoic acid] |

| Compound | EC50 (Human GPR40 [1]) [nM] | EC50 (Human GPR40 [2]) [nM] |
| --- | --- | --- |
| C[C@H](C(=O)O)[C@H](c1cccc(OCC2CCN(Cc3cc(C(F)(F)F)ccc3C(F)(F)F)CC2)c1)C1CC1 [Example 31] | 77 | 1 |

— patent US10059667B2, “Antidiabetic compounds” (MERCK SHARP & DOHME CORP., priority 2014, dated 2018)
